Molecular target: T1, Recombinant human mPGES-1 (Homo sapiens, UniProt O14684)
T1 construct: made in house; host or cells: CHO cells (crude microsomal fractions)
T1 sequence (O14684 1-152): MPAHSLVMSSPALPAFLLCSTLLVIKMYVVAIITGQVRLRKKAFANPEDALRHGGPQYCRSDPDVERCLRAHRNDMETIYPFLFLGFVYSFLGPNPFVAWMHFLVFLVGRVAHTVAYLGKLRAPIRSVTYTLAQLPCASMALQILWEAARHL
Test: In-vitro screening of mPGES-1 inhibitors (inhibition of PGE2 formation from PGH2, HTRF detection)
Format: biochemical
Conditions: mPGES-1 enzyme; for inhibition at 1 µM: 1 μM test compound, read-out: Percentage inhibition at 1 μM; for inhibition at 1 µM / inhibition at 10 µM: crude microsomal fractions; for inhibition at 10 µM: 10 μM test compound, read-out: Percentage inhibition at 10 μM; for IC50: class symbols
How it was run: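 PGH2-to-PGE2 isomerization run for 1 min with 15 μM PGH2 after 10 min compound preincubation with microsomal enzyme (40–60 μg/mL) and 2.5 mM GSH, pH buffer 0.1 M potassium phosphate with EDTA. Stannous chloride quench, HTRF PGE2 readout, IC50 fitted against uninhibited reaction.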

| inhibition at 1 µM [%] | inhibition at 10 µM [%] | IC50 [nM] | SMILES |
| --- | --- | --- | --- |
| 91.8 | 86.2 | < 50 | O=c1[nH]c(-c2c(F)cccc2Cl)nn1-c1ccc(C#Cc2ccc(F)nc2)cc1 [Example-5, 5-(2-Chloro-6-fluorophenyl)-2-{4-[(6-fluoropyridin-3-yl)ethynyl]phenyl}-2,4-dihydro-3H-1,2,4-triazol-3-one] |
| 91.8 | 98.7 | < 50 | CC(C)(C)C(=O)NCc1ccc(Cl)c(-c2nn(-c3ccc(C(F)(F)F)cc3F)c(=O)[nH]2)c1 [Example-163, N-(4-Chloro-3-(1-(2-fluoro-4-(trifluoromethyl)phenyl)-4,5-dihydro-5-oxo-1H-1,2,4-triazol-3-yl)benzyl)pivalamide] |
| 95.3 | 98.5 | < 50 | O=C(NCc1ccc(Cl)c(-c2nn(-c3ccc(C(F)(F)F)cc3)c(=O)[nH]2)c1)C(F)(F)F [Example-99, N-(4-Chloro-3-(5-oxo-1-(4-(trifluoromethyl)phenyl)-4,5-dihydro-1H-1,2,4-triazol-3-yl)benzyl)-2,2,2-trifluoroacetamide] |
| 88.3 | 86 | < 50 | O=c1[nH]c(-c2c(F)cccc2Cl)nn1-c1ccc(-c2nc(-c3ccc(Cl)cc3)no2)cc1 [Example-51, 3-(2-Chloro-6-fluorophenyl)-1-(4-(3-(4-chlorophenyl)-1,2,4-oxadiazol-5-yl)phenyl)-1H-1,2,4-triazol-5(4H)-one] |
| 92 | 96.8 | > 100 | Cc1ccc(CNC(=O)C(F)(F)F)c(C)c1-c1nn(-c2ccc(C(F)(F)F)cc2)c(=O)[nH]1 [Example-106, N-(3-(1-(4-(trifluoromethyl)phenyl)-4,5-dihydro-5-oxo-1H-1,2,4-triazol-3-yl)-2,4-dimethylbenzyl)-2,2,2-trifluoroacetamide] |
| 11.4 | 46 |  | CC(C)(C)n1nc(-c2cc(CNC(=O)C(F)(F)F)ccc2Cl)[nH]c1=O [Example-120, N-(3-(1-tert-butyl-4,5-dihydro-5-oxo-1H-1,2,4-triazol-3-yl)-4-chlorobenzyl)-2,2,2-trifluoroacetamide] |
| 28.9 | 63.8 |  | COc1cc(-n2nc(-c3c(Cl)cccc3Cl)[nH]c2=O)ccc1C(=O)Nc1cc(CNC(=O)C2CC2)ccc1Cl [Example-64, N-(2-Chloro-5-(cyclopropanecarboxamidomethyl)phenyl)-4-(3-(2,6-dichlorophenyl)-5-oxo-4,5-dihydro-1H-1,2,4-triazol-1-yl)-2-methoxybenzamide] |
| 72.3 | 92.5 | > 100 | CC(C)(C)C(=O)NCc1cnc(C2CC2)c(-c2nn(-c3ccc(C(F)(F)F)cc3)c(=O)[nH]2)c1 [Example-180, N-((6-Cyclopropyl-5-(1-(4-(trifluoromethyl)phenyl)-4,5-dihydro-5-oxo-1H-1,2,4-triazol-3-yl)pyridin-3-yl)methyl)pivalamide] |

Continued, compound first:

| SMILES | inhibition at 1 µM [%] | inhibition at 10 µM [%] | IC50 [nM] |
| --- | --- | --- | --- |
| O=C(Nc1cccc(C(F)(F)F)c1)c1ccc(-n2nc(-c3c(F)cccc3Cl)[nH]c2=O)cc1 [Example-31, 4-(3-(2-Chloro-6-fluorophenyl)-5-oxo-4,5-dihydro-1H-1,2,4-triazol-1-yl)-N-(3-(trifluoromethyl)phenyl)benzamide] | 96.9 | 98.6 | 50 to 100 |
| Cc1cc(-n2nc(-c3cc(CNC(=O)C(C)C)ccc3Cl)[nH]c2=O)ccc1Cl [Example-155, N-(4-Chloro-3-(1-(4-chloro-3-methylphenyl)-4,5-dihydro-5-oxo-1H-1,2,4-triazol-3-yl)benzyl)isobutyramide] | 99.7 | 97.1 | < 50 |
| O=c1[nH]c(-c2cc(S(=O)(=O)NC3CC3)ccc2Cl)nn1-c1ccc(Cl)cc1 [Example-97, 4-Chloro-3-(1-(4-chlorophenyl)-5-oxo-4,5-dihydro-1H-1,2,4-triazol-3-yl)-N-cyclopropylbenzenesulfonamide] | 20.2 | 6.88 |  |
| O=c1[nH]c(-c2c(F)cccc2Cl)nn1-c1ccc(C#Cc2cccc(Cl)c2F)cc1 [Example-12, 1-(4-((3-Chloro-2-fluorophenyl)ethynyl)phenyl)-3-(2-chloro-6-fluorophenyl)-1H-1,2,4-triazol-5(4H)-one] | 84.8 | 87.5 | < 50 |
| O=c1[nH]c(-c2c(F)cccc2Cl)nn1-c1ccc(C#Cc2ccc(C(F)(F)F)cc2Cl)cc1 [Example-7, 5-(2-Chloro-6-fluorophenyl)-2-(4-{[2-chloro-4-(trifluoromethyl)phenyl]ethynyl}phenyl)-2,4-dihydro-3H-1,2,4-triazol-3-one] | 89.1 | 95.2 | < 50 |
| O=C(NCc1ccc(F)cc1C(F)(F)F)c1ccc(-n2nc(-c3c(F)cccc3Cl)[nH]c2=O)cc1 [Example-28, 4-(3-(2-Chloro-6-fluorophenyl)-5-oxo-4,5-dihydro-1H-1,2,4-triazol-1-yl)-N-(4-fluoro-2-(trifluoromethyl)benzyl)benzamide] | 72.2 | 95.5 |  |
| COc1cc(-n2nc(-c3cc(CNC(=O)C4CC4)ccc3Cl)[nH]c2=O)ccc1C(=O)Nc1cccc(C(F)(F)F)c1 [Example-52, 4-(3-(2-Chloro-5-(cyclopropanecarboxamidomethyl)phenyl)-5-oxo-4,5-dihydro-1H-1,2,4-triazol-1-yl)-2-methoxy-N-(3-(trifluoromethyl)phenyl)benzamide] | 96.4 | 98.3 | < 50 |
| COc1ccc(-n2nc(-c3c(F)cccc3Cl)[nH]c2=O)cc1C(=O)NC1(c2ccc(C(F)(F)F)cc2)CC1 [Example-23, 5-[3-(2-Chloro-6-fluorophenyl)-5-oxo-4,5-dihydro-1H-1,2,4-triazol-1-yl]-2-methoxy-N-[1-[4-(trifluoromethyl)phenyl]cyclopropyl]benzamide] | 13.2 | 52.9 |  |
| CC(C)S(=O)(=O)NCc1ccc(Cl)c(-c2nn(-c3ccc(C(F)(F)F)cc3)c(=O)[nH]2)c1 [Example-162, N-(4-Chloro-3-{5-oxo-1-[4-(trifluoromethyl)phenyl]-4,5-dihydro-1H-1,2,4-triazol-3-yl}benzyl)propane-2-sulfonamide] | 99.3 | 99.3 | < 50 |
| CC(C)(C)C(=O)NCc1ccc(Cl)c(-n2nc(-c3ccc(C#CC4CC4)cc3F)[nH]c2=O)c1 [Example-168, N-(4-Chloro-3-(3-(4-(2-cyclopropylethynyl)-2-fluorophenyl)-4,5-dihydro-5-oxo-1,2,4-triazol-1-yl)benzyl)pivalamide] | 100 | 98.9 | < 50 |
| CC(C)(C)C(=O)NCc1ccc(Cl)c(-c2nn(-c3ccc(Cl)cc3)c(=O)[nH]2)c1F [Example-98, N-(4-Chloro-3-(1-(4-chlorophenyl)-5-oxo-4,5-dihydro-1H-1,2,4-triazol-3-yl)-2-fluorobenzyl)pivalamide] | 97.5 | 99.5 | < 50 |
| CC1(C)CCC(n2nc(-c3cc(CNC(=O)C(C)(C)C)c(F)cc3Cl)[nH]c2=O)CC1 [Example-125, N-(4-Chloro-2-fluoro-5-(4,5-dihydro-1-(4,4-dimethylcyclohexyl)-5-oxo-1H-1,2,4-triazol-3-yl)benzyl)pivalamide] | 79.9 | 95 |  |

Reference: patent US10821100B2, “Triazolone compounds as mPGES-1 inhibitors” (Glenmark Pharmaceuticals S.A., priority 2012, dated 2020)
